Experimental data: patent publication US12103900B2, “Environment-friendly process for selective acylation of aminophenol” (LAXMI ORGANIC INDUSTRIES LTD, priority 2020, dated 2024)

Assay: Analysis of solubility of paracetamol batches (Table 2)
Format: physicochemical
Settings: limit: soluble in ethanol (95%) and in acetone, sparingly soluble in water, very slightly soluble in dichloro-methane and ether
Description: For the analysis of solubility, the paracetamol obtained using the present invention should be soluble in ethanol (95%) and soluble in acetone, sparingly soluble in water, very slightly soluble in dichloro-methane and ether. For identification purpose, the IR spectra should match the standard IR spectrum. The impurities were determined according to European and Indian pharmacopeia.

Solubility: Complies
Structure (SMILES): CC(=O)Nc1ccc(O)cc1 [Ex. 9, N-acetyl-para-aminophenol]
